Measured values from ChEMBL document CHEMBL3885881, “DrugMatrix”.

Species on record: Rattus norvegicus
Assay: DrugMatrix - Regimen: Daily Repeat
Type: toxicity, organism-based, Sprague-Dawley
Design: regimen Daily Repeat, gender Male, age 6-8 weeks
Conditions: in vivo, po, route oral GAVAGE, vehicle 100 % WATER; for ABSOLUTE BASOPHIL / ABSOLUTE EOSINOPHIL / ABSOLUTE LYMPHOCYTE / ABSOLUTE MONOCYTE / ABSOLUTE SEGMENTED NEUTROPHIL / BASOPHIL / EOSINOPHIL / ERYTHROCYTE COUNT / HEMATOCRIT / HEMOGLOBIN / LEUKOCYTE COUNT / LYMPHOCYTE / MEAN CORPUSCULAR HEMOGLOBIN / MEAN CORPUSCULAR HEMOGLOBIN CONCENTRATION / MEAN CORPUSCULAR VOLUME / MONOCYTE / NEUTROPHIL / NUCLEATED RED BLOOD CELLS / PLATELET COUNT: tissue Blood; for ALANINE AMINOTRANSFERASE / ALBUMIN / ALKALINE PHOSPHATASE / ASPARTATE AMINOTRANSFERASE / BLOOD UREA NITROGEN / CARBON DIOXIDE / CHLORIDE / CHOLESTEROL / CREATINE PHOSPHOKINASE / CREATININE / GLUCOSE / LACTATE DEHYDROGENASE / LIPASE / PHOSPHORUS / POTASSIUM / SODIUM / TOTAL BILIRUBIN / TOTAL PROTEIN / URIC ACID: tissue Plasma
[1] = 8 mg/kg, 72 h, dose level Low, time 3 day
[2] = 8 mg/kg, 120 h, dose level Low, time 5 day
[3] = 78 mg/kg, 72 h, dose level High, time 3 day
[4] = 78 mg/kg, 120 h, dose level High, time 5 day

In the case of `NNc1ccccc1` [PHENYLHYDRAZINE], the “ABSOLUTE BASOPHIL” value [1] was 0 CELLS/uL, the “ABSOLUTE EOSINOPHIL” value [1] was 0 CELLS/uL and the “ABSOLUTE LYMPHOCYTE” value [1] was 13454.67 CELLS/uL. For the same compound, the “ABSOLUTE MONOCYTE” value [1] was 235.67 CELLS/uL, the “ABSOLUTE SEGMENTED NEUTROPHIL” value [1] was 1043 CELLS/uL and the BASOPHIL [1] was 0%. The EOSINOPHIL [1] was 0%, the “ERYTHROCYTE COUNT” value [1] was 5.23 x10E6/uL and the HEMATOCRIT [1] was 34.17%. For the same compound, the HEMOGLOBIN [1] was 13.63 G/DL, the “LEUKOCYTE COUNT” value [1] was 14.73 x10E3/uL and the LYMPHOCYTE [1] was 91.33%. For the same compound, the “MEAN CORPUSCULAR HEMOGLOBIN” value [1] was 26.1 pg, the “MEAN CORPUSCULAR HEMOGLOBIN CONCENTRATION” value [1] was 39.93 G/DL and the “MEAN CORPUSCULAR VOLUME” value [1] was 65.33 fL. The MONOCYTE [1] was 1.33%, the NEUTROPHIL [1] was 7.33% and the “NUCLEATED RED BLOOD CELLS” value [1] was 0 /100WBC. The “PLATELET COUNT” value [1] was 994.33 x10E3/uL, the “ALANINE AMINOTRANSFERASE” value [1] was 53 u/L and the ALBUMIN [1] was 4.17 G/DL. For the same compound, the “ALKALINE PHOSPHATASE” value [1] was 388 u/L, the “ASPARTATE AMINOTRANSFERASE” value [1] was 115 u/L and the “BLOOD UREA NITROGEN” value [1] was 15.33 mg/dL. For the same compound, the “CARBON DIOXIDE” value [1] was 21.33 mmol/L, the CHLORIDE [1] was 102.67 MEQ/L and the CHOLESTEROL [1] was 102.33 mg/dL. For the same compound, the “CREATINE PHOSPHOKINASE” value [1] was 1080.67 u/L, the CREATININE [1] was 0.13 mg/dL and the GLUCOSE [1] was 177 mg/dL. For the same compound, the “LACTATE DEHYDROGENASE” value [1] was 308.67 u/L, the LIPASE [1] was 9.33 u/L and the PHOSPHORUS [1] was 14.53 mg/dL. The POTASSIUM [1] was 6.82 MEQ/L, the SODIUM [1] was 146.1 MEQ/L and the “TOTAL BILIRUBIN” value [1] was 0.17 mg/dL. For the same compound, the “TOTAL PROTEIN” value [1] was 5.87 G/DL, the “URIC ACID” value [1] was 2.1 mg/dL and the “ABSOLUTE BASOPHIL” value [2] was 0 CELLS/uL. For the same compound, the “ABSOLUTE EOSINOPHIL” value [2] was 0 CELLS/uL, the “ABSOLUTE LYMPHOCYTE” value [2] was 16277.67 CELLS/uL and the “ABSOLUTE MONOCYTE” value [2] was 115 CELLS/uL. For the same compound, the “ABSOLUTE SEGMENTED NEUTROPHIL” value [2] was 974 CELLS/uL, the BASOPHIL [2] was 0% and the EOSINOPHIL [2] was 0%. For the same compound, the “ERYTHROCYTE COUNT” value [2] was 5.53 x10E6/uL, the HEMATOCRIT [2] was 35.4% and the HEMOGLOBIN [2] was 14.27 G/DL. The “LEUKOCYTE COUNT” value [2] was 17.37 x10E3/uL, the LYMPHOCYTE [2] was 93.67% and the “MEAN CORPUSCULAR HEMOGLOBIN” value [2] was 25.8 pg. For the same compound, the “MEAN CORPUSCULAR HEMOGLOBIN CONCENTRATION” value [2] was 40.3 G/DL, the “MEAN CORPUSCULAR VOLUME” value [2] was 64.07 fL and the MONOCYTE [2] was 0.67%. The NEUTROPHIL [2] was 5.67%, the “NUCLEATED RED BLOOD CELLS” value [2] was 0 /100WBC and the “PLATELET COUNT” value [2] was 1250.67 x10E3/uL. For the same compound, the “ALANINE AMINOTRANSFERASE” value [2] was 46.67 u/L, the ALBUMIN [2] was 4.1 G/DL and the “ALKALINE PHOSPHATASE” value [2] was 440.67 u/L. The “ASPARTATE AMINOTRANSFERASE” value [2] was 81.67 u/L, the “BLOOD UREA NITROGEN” value [2] was 15.33 mg/dL and the “CARBON DIOXIDE” value [2] was 26.33 mmol/L. For the same compound, the CHLORIDE [2] was 102 MEQ/L, the CHOLESTEROL [2] was 63 mg/dL and the “CREATINE PHOSPHOKINASE” value [2] was 289 u/L. The CREATININE [2] was 0.12 mg/dL, the GLUCOSE [2] was 147.67 mg/dL and the “LACTATE DEHYDROGENASE” value [2] was 310.67 u/L. It also gave an LIPASE [2] of 9 u/L, a PHOSPHORUS [2] of 13.93 mg/dL and a POTASSIUM [2] of 6.84 MEQ/L. For the same compound, the SODIUM [2] was 144.13 MEQ/L, the “TOTAL BILIRUBIN” value [2] was 0.17 mg/dL and the “TOTAL PROTEIN” value [2] was 5.83 G/DL. The “URIC ACID” value [2] was 1.23 mg/dL, the “ABSOLUTE BASOPHIL” value [3] was 0 CELLS/uL and the “ABSOLUTE EOSINOPHIL” value [3] was 0 CELLS/uL. For the same compound, the “ABSOLUTE LYMPHOCYTE” value [3] was 24784.33 CELLS/uL, the “ABSOLUTE MONOCYTE” value [3] was 97 CELLS/uL and the “ABSOLUTE SEGMENTED NEUTROPHIL” value [3] was 9152 CELLS/uL. For the same compound, the BASOPHIL [3] was 0%, the EOSINOPHIL [3] was 0% and the “ERYTHROCYTE COUNT” value [3] was 3.43 x10E6/uL. The HEMATOCRIT [3] was 24.43%, the “LEUKOCYTE COUNT” value [3] was 34.03 x10E3/uL and the LYMPHOCYTE [3] was 73%. The “MEAN CORPUSCULAR VOLUME” value [3] was 71.33 fL, the MONOCYTE [3] was 0.33% and the NEUTROPHIL [3] was 26.67%. For the same compound, the “NUCLEATED RED BLOOD CELLS” value [3] was 21.67 /100WBC, the “PLATELET COUNT” value [3] was 1624.67 x10E3/uL and the “ALANINE AMINOTRANSFERASE” value [3] was 46 u/L. The ALBUMIN [3] was 4.27 G/DL, the “ALKALINE PHOSPHATASE” value [3] was 266 u/L and the “ASPARTATE AMINOTRANSFERASE” value [3] was 107.67 u/L. For the same compound, the “BLOOD UREA NITROGEN” value [3] was 15 mg/dL, the “CARBON DIOXIDE” value [3] was 23.67 mmol/L and the CHLORIDE [3] was 102.33 MEQ/L. The CHOLESTEROL [3] was 53.33 mg/dL, the “CREATINE PHOSPHOKINASE” value [3] was 217.33 u/L and the CREATININE [3] was 0.11 mg/dL. For the same compound, the GLUCOSE [3] was 182.33 mg/dL, the “LACTATE DEHYDROGENASE” value [3] was 512.67 u/L and the LIPASE [3] was 9.33 u/L. For the same compound, the PHOSPHORUS [3] was 12.13 mg/dL, the POTASSIUM [3] was 7.33 MEQ/L and the SODIUM [3] was 141.1 MEQ/L. The “TOTAL BILIRUBIN” value [3] was 0.9 mg/dL, the “TOTAL PROTEIN” value [3] was 5.7 G/DL and the “URIC ACID” value [3] was 2 mg/dL. For the same compound, the “ABSOLUTE BASOPHIL” value [4] was 0 CELLS/uL, the “ABSOLUTE EOSINOPHIL” value [4] was 0 CELLS/uL and the “ABSOLUTE LYMPHOCYTE” value [4] was 25256 CELLS/uL. For the same compound, the “ABSOLUTE MONOCYTE” value [4] was 656 CELLS/uL, the “ABSOLUTE SEGMENTED NEUTROPHIL” value [4] was 6888 CELLS/uL and the BASOPHIL [4] was 0%. The EOSINOPHIL [4] was 0%, the “ERYTHROCYTE COUNT” value [4] was 2.84 x10E6/uL and the HEMATOCRIT [4] was 25.3%. The “LEUKOCYTE COUNT” value [4] was 32.8 x10E3/uL, the LYMPHOCYTE [4] was 77% and the “MEAN CORPUSCULAR VOLUME” value [4] was 89.1 fL. For the same compound, the MONOCYTE [4] was 2%, the NEUTROPHIL [4] was 21% and the “NUCLEATED RED BLOOD CELLS” value [4] was 31 /100WBC. For the same compound, the “PLATELET COUNT” value [4] was 1632 x10E3/uL, the “ALANINE AMINOTRANSFERASE” value [4] was 84 u/L and the ALBUMIN [4] was 4.8 G/DL. The “ALKALINE PHOSPHATASE” value [4] was 311 u/L, the “ASPARTATE AMINOTRANSFERASE” value [4] was 313 u/L and the “BLOOD UREA NITROGEN” value [4] was 28 mg/dL. For the same compound, the “CARBON DIOXIDE” value [4] was 17 mmol/L, the CHLORIDE [4] was 106 MEQ/L and the CHOLESTEROL [4] was 81 mg/dL. The “CREATINE PHOSPHOKINASE” value [4] was 196 u/L, the CREATININE [4] was 0.1 mg/dL and the GLUCOSE [4] was 129 mg/dL. For the same compound, the “LACTATE DEHYDROGENASE” value [4] was 1486 u/L, the LIPASE [4] was 10 u/L and the PHOSPHORUS [4] was 11.1 mg/dL. For the same compound, the POTASSIUM [4] was 6.59 MEQ/L, the SODIUM [4] was 143.3 MEQ/L and the “TOTAL BILIRUBIN” value [4] was 2.2 mg/dL. For the same compound, the “TOTAL PROTEIN” value [4] was 6.2 G/DL and the “URIC ACID” value [4] was 2 mg/dL.
